{"source": "patent US20230026360A1", "about": "“DETECTION OF MOLECULAR INTERACTIONS” (Orionis Biosciences, Inc., priority 2019, published 2023)", "type_in_all_cases": "cell-based", "key": {"[1]": {"molecular_target": "T1, CRBN-IKZF2 interaction (Homo sapiens, UniProt Q96SW2)", "assay": "MAPPIT inverse assay, CRBN gp130 fusion + IKZF2 receptor fusion", "set-up": "expressed in transfected cells; host or cells: HEK293T", "details": "inverse configuration; HEK293T cells; EPO; dose-response", "text": "(§1) The traditional MAPPIT assay has been used to monitor protein-protein interactions. A bait protein (protein A) is expressed as a fusion protein in which it is genetically fused to an engineered intracellular receptor domain of the leptin receptor, which is itself fused to the extracellular domain of the erythropoietin (Epo) receptor. Binding of Epo ligand to the Epo receptor component results in activation of receptor-associated intracellular JAK2. However, activated JAK2 cannot activate the leptin receptor to trigger STAT3 binding and its phosphorylation because its tyrosine residues, normally phosphorylated by activated JAK2, have been mutated. […] Activation of STAT3 can be monitored by introduction of a STAT3-responsive reporter gene, including a luciferase-encoding gene or a gene encoding a fluorescent marker such as GFP or some other type of Fluorescent Protein (EGFP etc.). […]\n(§2) Full size proteins were fused for each of the target/prey proteins tested, except in the case of IKZF1 where isoform 7 was used. […] Luciferase activity was measured 24 hours after test compound treatment using the Luciferase Assay System kit (PROMEGA, Madison, Wis.) with an Ensight plate reader (PERKIN ELMER LIFE SCIENCES, Waltham, Mass.). […]"}, "[2]": {"molecular_target": "T2, CRBN-CSNK1A (CK1a) interaction (Homo sapiens, UniProt Q96SW2)", "assay": "MAPPIT inverse assay, CRBN gp130 fusion + CSNK1A1 receptor fusion", "set-up": "expressed in transfected cells; host or cells: HEK293T", "details": "inverse configuration; HEK293T cells; EPO; dose-response", "text": "as §1, §2"}, "[3]": {"molecular_target": "CRBN-SALL4 interaction (Homo sapiens, UniProt Q96SW2)", "assay": "MAPPIT forward assay, CRBN receptor fusion + SALL4 gp130 fusion", "set-up": "MAPPIT chimeric receptor (EPO receptor extracellular domain + signaling-deficient leptin receptor part); expressed in transfected cells; host or cells: HEK293T", "details": "forward configuration; HEK293T cells; EPO; dose-response", "text": "as §1, §2"}, "[4]": {"molecular_target": "CRBN-IKZF3 interaction (Homo sapiens, UniProt Q96SW2)", "assay": "MAPPIT inverse assay, CRBN gp130 fusion + IKZF3 receptor fusion", "set-up": "expressed in transfected cells; host or cells: HEK293T", "details": "inverse configuration; HEK293T cells; EPO; dose-response", "text": "as §1, §2"}, "[5]": {"molecular_target": "T1, CRBN-IKZF2 interaction", "assay": "MAPPIT forward assay, CRBN receptor fusion + IKZF2 gp130 fusion", "set-up": "MAPPIT chimeric receptor (EPO receptor extracellular domain + signaling-deficient leptin receptor part); expressed in transfected cells; host or cells: HEK293T", "details": "forward configuration; HEK293T cells; EPO; dose-response", "text": "as §1, §2"}, "[6]": {"molecular_target": "T3, CRBN (Homo sapiens, UniProt Q96SW2)", "T3 construct": "expressed in transfected cells; host or cells: HEK293T", "assay": "CRBN inverse MAPPIT competition assay against TMP-lenalidomide hybrid ligand", "details": "300 nM TMP-lenalidomide; leptin; HEK293T; specificity versus gp130-REM2 control (CTRL)", "text": "As in Example 6, HEK293T cells were transfected with a plasmid encoding E. coli Dihydrofolate Reductase (DHFR) fused to the tails of the cytoplasmic domain of a mutated leptin receptor (pCLG-DHFR), a plasmid encoding a CRBN prey fused to the gp130 cytoplasmic domain or a plasmid encoding a gp130-REM2 control fusion that can directly interact with the leptin receptor of the DHFR fusion protein, and the STAT3 responsive pXP2d2-rPAPI-luciferase reporter plasmid—using a standard transfection method, as described (Lievens, et al. “Array MAPPIT: high-throughput interactome analysis in mammalian cells.” Journal of Proteome Research 8.2 (2009): 877-886). […] Data points in FIGS. 10A-B represent the average luciferase activity of triplicate samples derived from cells treated with leptin+test compound for the REM2 control (CTRL) or cells treated with leptin+hybrid ligand+test compound (CRBN) relative to leptin (CTRL) or leptin+hybrid ligand (CRBN) only treated samples (the signals obtained in absence of added test compound for both cases is set at 100% of luciferase activity on y-axis). Error bars represent standard deviations. Curves were fit using 4-parameter nonlinear regression in […] PRISM software."}, "[7]": {"test_system": "CRBN and human ORF(eome) cDNA library targets", "assay": "Inverse MAPPIT cell microarray ORF cDNA library screen with CRBN bait", "details": "HEK293T", "experimental": "In order to identify ligand-induced CRBN substrates, or neosubstrates, a MAPPIT cell microarray screen was performed using the procedure described in Lievens, et al. “Proteome-scale binary interactomics in human cells.” Molecular & Cellular Proteomics 15.12 (2016): 3624-3639. In brief, HEK293T cells were transfected with a CRBN bait expression plasmid encoding a gp130-CRBN fusion construct. These transfected cells were then added to microarray screening plates containing a MAPPIT chimeric membrane receptor fusion expression plasmid collection covering over 15,000 ORFs. Each spot in the microarray contained a different chimeric receptor-ORF fusion expression plasmid, as well as a STAT3-responsive fluorescence protein-encoding reporter plasmid. Gp130-CRBN bait transfected cells landing and attaching on these spots therefore become transfected as well with the receptor-ORF prey plasmid and the reporter plasmid, resulting in a different CRBN-ORF combination being tested in the cells on every different microarray spot. Twenty-four hours after transfection cells were differentially stimulated with erythropoietin with and without the CRBN ligand CC-220 (1 μM final concentration), and reporter signal (GFP-like fluorescence reporter) was read out 48 hours later."}, "[8]": {"molecular_target": "T2, CRBN-CSNK1A (CK1a) interaction", "assay": "MAPPIT forward assay, CRBN receptor fusion + CSNK1A1 gp130 fusion", "set-up": "MAPPIT chimeric receptor (EPO receptor extracellular domain + signaling-deficient leptin receptor part); expressed in transfected cells; host or cells: HEK293T", "details": "forward configuration; HEK293T cells; EPO; dose-response", "text": "as §1, §2"}}, "note": "“Also recorded” adds a separate entry of the source."}
{"smiles": "O=C1CC[C@H](N2Cc3c(OCc4ccc(CN5CCOCC5)cc4)cccc3C2=O)C(=O)N1", "note": "[CC-220]", "values": [{"measurement": "compound-induced binding of IKZF2 to CRBN (luciferase reporter signal)", "setting": "[1]", "value": "an interaction signal response could be detected"}, {"measurement": "compound-induced binding of CSNK1A (CK1a) to CRBN (luciferase reporter signal)", "setting": "[2]", "value": "an interaction signal response could be detected; also recorded: specific signal in the inverse"}, {"measurement": "compound-induced binding of SALL4 to CRBN (luciferase reporter signal)", "setting": "[3]", "value": "only in the inverse assay setup an interaction signal response could be detected"}, {"measurement": "compound-induced binding of IKZF3 to CRBN (luciferase reporter signal)", "setting": "[4]", "value": "an interaction signal response could be detected"}, {"measurement": "compound-induced binding of IKZF2 to CRBN (luciferase reporter signal)", "setting": "[5]", "value": "only in the inverse assay setup an interaction signal response could be detected"}, {"measurement": "competition with TMP-lenalidomide hybrid ligand for binding to CRBN (inhibition of luciferase signal)", "setting": "[6]", "value": "specifically inhibit hybrid-ligand induced luciferase reporter activation in a dose-dependent manner; also recorded: competed efficiently"}, {"measurement": "induction of fluorescence reporter signal in ORF cDNA cell microarray screen", "setting": "[7]; CC-220 1 μM final concentration, over 15,000 ORFs, erythropoietin", "value": "a significant induction of signal is observed for a number of ORF cDNAs"}, {"measurement": "dose-response confirmation of binding of three ORF hits to CRBN", "setting": "[7]; inverse MAPPIT luciferase assay, EPO", "value": "dose-dependent binding to CRBN"}, {"measurement": "compound-induced binding of CSNK1A (CK1a) to CRBN (luciferase reporter signal)", "setting": "[8]", "value": "only in the inverse assay setup an interaction signal response could be detected"}]}
